Results taken from PubChem BioAssay AID1745844 (Carcinogenic Potency Database (CPDB), 2022).
Several values for one entry are separate records, joined by “and”; a condition that tells them apart may be missing. Equal entries are not always repeated. Activity calls are given as the source filed them. No rule for the calls is given here.

System: rodent lifetime carcinogenesis bioassay, tumor incidence TD50
Assay: carcinogenic potency in animals, long-term in vivo studies, CPDB compilation (AID 1745844)

SMILES: c1ccncc1
- TD50 (mouse, strain B6C3F1, females, in drinking water, site: all sites, lesion: hemangioma + hemangiosarcoma, dosed 104 weeks, study length 104 weeks): 690 mg/kg/day
- TD50 (mouse, strain B6C3F1, females, in drinking water, site: all sites, lesion: hemangioma, dosed 104 weeks, study length 104 weeks): 868 mg/kg/day
- TD50 (mouse, strain B6C3F1, females, in drinking water, site: any site (literature study), lesion: several types, types named in the paper, dosed 104 weeks, study length 104 weeks): 338 mg/kg/day
- TD50 (mouse, strain B6C3F1, females, in drinking water, site: liver, lesion: hepatoblastoma + hepatocellular carcinoma, dosed 104 weeks, study length 104 weeks): 27.2 mg/kg/day
- TD50 (mouse, strain B6C3F1, females, in drinking water, site: liver, lesion: hepatoblastoma, dosed 104 weeks, study length 104 weeks): 132 mg/kg/day
- TD50 (mouse, strain B6C3F1, females, in drinking water, site: liver, lesion: hepatocellular adenoma + hepatoblastoma + hepatocellular carcinoma, dosed 104 weeks, study length 104 weeks): 150 mg/kg/day
- TD50 (mouse, strain B6C3F1, females, in drinking water, site: liver, lesion: hepatocellular adenoma, dosed 104 weeks, study length 104 weeks): 41.9 mg/kg/day
- TD50 (mouse, strain B6C3F1, females, in drinking water, site: liver, lesion: hepatocellular carcinoma, dosed 104 weeks, study length 104 weeks): 41.6 mg/kg/day
- TD50 (mouse, strain B6C3F1, females, in drinking water, site: lung, lesion: alveolar/bronchiolar adenoma + alveolar/bronchiolar carcinoma, dosed 104 weeks, study length 104 weeks): 1990 mg/kg/day
- TD50 (mouse, strain B6C3F1, males, in drinking water, site: any site (literature study), lesion: several types, types named in the paper, dosed 103 weeks, study length 103 weeks): 25700 mg/kg/day
- TD50 (mouse, strain B6C3F1, males, in drinking water, site: liver, lesion: hepatoblastoma + hepatocellular carcinoma, dosed 103 weeks, study length 103 weeks): 22.1 mg/kg/day
- TD50 (mouse, strain B6C3F1, males, in drinking water, site: liver, lesion: hepatoblastoma, dosed 103 weeks, study length 103 weeks): 68.1 mg/kg/day
- TD50 (mouse, strain B6C3F1, males, in drinking water, site: liver, lesion: hepatocellular adenoma + hepatoblastoma + hepatocellular carcinoma, dosed 103 weeks, study length 103 weeks): 496 mg/kg/day
- TD50 (mouse, strain B6C3F1, males, in drinking water, site: liver, lesion: hepatocellular adenoma, dosed 103 weeks, study length 103 weeks): 488 mg/kg/day
- TD50 (mouse, strain B6C3F1, males, in drinking water, site: liver, lesion: hepatocellular carcinoma, dosed 103 weeks, study length 103 weeks): 28.6 mg/kg/day
- TD50 (rat, strain Fischer 344, females, in drinking water, site: all sites, lesion: mononuclear-cell leukemia, dosed 104 weeks, study length 104 weeks): 31.2 mg/kg/day
- TD50 (rat, strain Fischer 344, females, in drinking water, site: any site (literature study), lesion: several types, types named in the paper, dosed 104 weeks, study length 104 weeks): 32.9 mg/kg/day
- TD50 (rat, strain Fischer 344, males, in drinking water, site: any site (literature study), lesion: several types, types named in the paper, dosed 103 weeks, study length 103 weeks): 31 mg/kg/day
- TD50 (rat, strain Fischer 344, males, in drinking water, site: kidney, lesion: tubule adenoma + tubule carcinoma, dosed 103 weeks, study length 103 weeks): 67.3 mg/kg/day and 74.6 mg/kg/day
- TD50 (rat, strain Fischer 344, males, in drinking water, site: kidney, lesion: tubule adenoma, dosed 103 weeks, study length 103 weeks): 73.7 mg/kg/day and 75.6 mg/kg/day
- TD50 (rat, strain Fischer 344, males, in drinking water, site: liver, lesion: hepatocellular adenoma + hepatoblastoma + hepatocellular carcinoma, dosed 103 weeks, study length 103 weeks): 160 mg/kg/day
- TD50 (rat, strain Wistar, males, in drinking water, site: any site (literature study), lesion: several types, types named in the paper, dosed 103 weeks, study length 103 weeks): 7.14 mg/kg/day
- TD50 (rat, strain Wistar, males, in drinking water, site: testis, lesion: interstitial-cell adenoma, bilateral + interstitial-cell adenoma, dosed 103 weeks, study length 103 weeks): 22.4 mg/kg/day
- TD50 (rat, strain Wistar, males, in drinking water, site: thyroid gland, lesion: follicular-cell adenoma, bilateral + follicular-cell adenoma, dosed 103 weeks, study length 103 weeks): 38.4 mg/kg/day

SMILES: NC(N)=S
- carcinogen call (rat, strain Fischer 344, males, i.p., site: liver, lesion: one or several types, types not named, dosed 60 weeks, study length 60 weeks): negative (inactive)
- TD50 (rat, strain Hebrew University, males, in drinking water, site: any site (literature study), lesion: several types, types named in the paper, dosed 113 weeks, study length 113 weeks): 27.5 mg/kg/day
- TD50 (rat, strain Hebrew University, males, in drinking water, site: auricular region, lesion: epidermoid carcinoma, dosed 113 weeks, study length 113 weeks): 93.5 mg/kg/day
- TD50 (rat, strain Hebrew University, males, in drinking water, site: eyelid, lesion: epidermoid carcinoma, dosed 113 weeks, study length 113 weeks): 93.5 mg/kg/day
- TD50 (rat, strain Hebrew University, males, several routes, site: any site (literature study), lesion: several types, types named in the paper, dosed 95 weeks, study length 95 weeks): 50.8 mg/kg/day
- TD50 (rat, strain Hebrew University, males, several routes, site: auricular region, lesion: epidermoid carcinoma, dosed 95 weeks, study length 95 weeks): 104 mg/kg/day
- TD50 (rat, strain Hebrew University, males, several routes, site: eyelid, lesion: epidermoid carcinoma, dosed 95 weeks, study length 95 weeks): 225 mg/kg/day
- TD50 (rat, strain Osborne-Mendel, females, in feed, site: any site (literature study), lesion: benign tumor, dosed 104 weeks, study length 104 weeks): 15 mg/kg/day (inactive)
- carcinogen call (rat, strain Osborne-Mendel, females, in feed, site: any site (literature study), lesion: malignant tumor, dosed 104 weeks, study length 104 weeks): negative (inactive)
- TD50 (rat, strain Osborne-Mendel, females, in feed, site: any site (literature study), lesion: several types, types named in the paper, dosed 113 weeks, study length 113 weeks): 16.2 mg/kg/day (inactive)
- carcinogen call (rat, strain Osborne-Mendel, females, in feed, site: liver, lesion: one or several types, types not named, dosed 104 weeks, study length 104 weeks): negative (inactive)
- carcinogen call (rat, strain Osborne-Mendel, females, in feed, site: liver, lesion: one or several types, types not named, dosed 113 weeks, study length 113 weeks): negative (inactive)
- TD50 (rat, strain Osborne-Mendel, males, in feed, site: any site (literature study), lesion: benign tumor, dosed 104 weeks, study length 104 weeks): 64.7 mg/kg/day (inactive)
- carcinogen call (rat, strain Osborne-Mendel, males, in feed, site: any site (literature study), lesion: malignant tumor, dosed 104 weeks, study length 104 weeks): negative (inactive)
- TD50 (rat, strain Osborne-Mendel, males, in feed, site: any site (literature study), lesion: several types, types named in the paper, dosed 113 weeks, study length 113 weeks): 46.1 mg/kg/day (inactive)
- carcinogen call (rat, strain Osborne-Mendel, males, in feed, site: liver, lesion: one or several types, types not named, dosed 104 weeks, study length 104 weeks): negative (inactive)
- carcinogen call (rat, strain Osborne-Mendel, males, in feed, site: liver, lesion: one or several types, types not named, dosed 113 weeks, study length 113 weeks): negative (inactive)
